In test [1] the target is T1, MelBEc (Escherichia coli, UniProt P02921). Nature of the test: isothermal titration calorimetry. Format: binding. The note with it: purified in 0.01% MNG-3, 20 mM Tris-HCl pH 7.5, 100 mM NaCl, 10% glycerol, 25 °C.
The target in test [2] is T2, MelBSt (Salmonella enterica, UniProt P30878). Nature of the test: Trp→D^2G FRET, displacement of bound D^2G. Format: binding. The note with it: read-out: RSO membrane vesicles, 10 μM D^2G, 20 mM NaCl, KPi pH 7.5.
The target of test [3] is T2, MelBSt. The test can be described thus: isothermal titration calorimetry. It is filed as binding. The note with it: purified in 0.01% MNG-3, 20 mM Tris-HCl pH 7.5, 100 mM NaCl, 10% glycerol, 25 °C. For orientation: Isothermal titration calorimetry measures the heat released or taken up as one component is titrated into another.
Test [4] has as its target T1, MelBEc. The test can be described thus: Trp→D^2G FRET, displacement of bound D^2G. Format: binding. The note with it: read-out: RSO membrane vesicles, 10 μM D^2G, 20 mM NaCl, KPi pH 7.5.
Test [5] deals with MelBSt (Salmonella enterica, UniProt P30878, R295C). The note with it: RSO vesicles solubilized with MNG-3, 10 μM D^2G, 20 mM NaCl.
In test [6] the target is R141C mutant of the melibiose permease of Salmonella typhimurium (R141C MelBSt) (Salmonella typhimurium, UniProt P30878 1-476, R141C). The test can be described thus: ITC.
The target of test [7] is WT melibiose permease of Escherichia coli (MelBEc) (Escherichia coli, UniProt P02921 1-473). The test can be described thus: ITC.

T1 sequence (P02921 2-473): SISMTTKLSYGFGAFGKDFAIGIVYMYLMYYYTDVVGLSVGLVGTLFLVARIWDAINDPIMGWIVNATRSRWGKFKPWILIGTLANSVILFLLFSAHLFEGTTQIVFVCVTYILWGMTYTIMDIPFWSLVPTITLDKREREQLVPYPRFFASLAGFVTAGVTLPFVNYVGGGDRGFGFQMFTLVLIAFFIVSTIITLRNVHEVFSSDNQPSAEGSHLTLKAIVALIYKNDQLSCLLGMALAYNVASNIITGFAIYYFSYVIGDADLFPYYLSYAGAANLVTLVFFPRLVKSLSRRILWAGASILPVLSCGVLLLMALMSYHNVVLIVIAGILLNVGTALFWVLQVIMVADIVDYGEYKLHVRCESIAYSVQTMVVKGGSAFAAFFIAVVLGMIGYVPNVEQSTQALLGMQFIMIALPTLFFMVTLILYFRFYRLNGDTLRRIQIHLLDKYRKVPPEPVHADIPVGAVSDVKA

In general, Kd refers to the free concentration of one partner at which half of the binding sites on the other are occupied at equilibrium, for simple one-to-one binding. A higher Kd goes with lower affinity. `OC[C@H]1O[C@H](OC[C@H]2OC(O)[C@H](O)[C@@H](O)[C@@H]2O)[C@H](O)[C@@H](O)[C@H]1O` (stereo partly shown) [melibiose]: the figures for the Kd on MelBEc [1] and on MelBSt [3] were 1280 ± 60 µM and 2510 ± 130 µM, respectively. Further, the IC50 is 2420 ± 220 µM at MelBSt [2], 660 ± 160 µM at MelBEc [4] and 5490 ± 830 µM against MelBSt [5].

B1: phosphotransferase protein IIA^Glc of E. coli (natural protein, UniProt P69783 1-169, looked up)
chain: MGLFDKLKSLVSDDKKDTGTIEIIAPLSGEIVNIEDVPDVVFAEKIVGDGIAIKPTGNKMVAPVDGTIGKIFETNHAFSIESDSGVELFVHFGIDTVELKGEGFKRIAEEGQRVKVGDTVIEFDLPLLEEKAKSTLTPVVISNMDEIKELIKLSGSVTVGETPVIRIKK
Molecule B1 displayed a Kd in test [6] of 2 µM. In addition, the binding result in test [7] was “binds”.

For the origin of these results see paper PMC4646067 (Biochemistry, 2015).
